Literature values as cited in patent US7374920B2, “Ginkgo biloba levopimaradiene synthase” (priority 2001, dated 2008).

Tests used:
[1] = molecular target: platelet-activating factor (PAF) receptor (Homo sapiens, UniProt P25105); conditions: compared with the other ginkgolide diterpenes; cited from earlier work
insect larvae = conditions: Schwarz, M., 1994; Matsumoto, et al., 1987; cited from earlier work

Sequence of platelet-activating factor (PAF) receptor (P25105 whole entry): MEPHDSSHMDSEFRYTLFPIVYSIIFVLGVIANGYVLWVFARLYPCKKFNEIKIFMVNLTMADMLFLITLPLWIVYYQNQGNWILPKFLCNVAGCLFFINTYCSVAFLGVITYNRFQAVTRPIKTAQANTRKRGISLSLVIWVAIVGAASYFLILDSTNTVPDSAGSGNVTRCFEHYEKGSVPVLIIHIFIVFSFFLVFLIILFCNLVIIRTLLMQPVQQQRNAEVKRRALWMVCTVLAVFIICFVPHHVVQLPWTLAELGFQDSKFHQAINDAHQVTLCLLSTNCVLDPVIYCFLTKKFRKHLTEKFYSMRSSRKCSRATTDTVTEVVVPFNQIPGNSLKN

| Compound | PAF antagonist activity [1] | antifeedant activity (insect larvae) |
| --- | --- | --- |
| CC1C(=O)OC2C(O)C34C5CC(C(C)(C)C)C36C(OC(=O)C6O)OC4(C(=O)O5)C12O (centres unmarked) [ginkgolide B] | highest activity of the diterpenes |  |
| CC(C)(C)[C@]1(O)CC2OC(=O)CC23C(=O)OC2OC(=O)[C@H](O)C231 (some centres unmarked) [bilobalide] |  | significant antifeedant activities toward insect larvae |
